Measured values from publication PMC13576449, “Small-Molecule Activators of PRMT1: Discovery, SAR Analyses, and Proapoptotic Effects in Pancreatic Cancer Cells” (Journal of Medicinal Chemistry, 2026).
One block for each molecule: values may come before it.

Assays:
Format in all cases: biochemical
[1] = target: T1, FLAG-tagged PRMT4 (Mus musculus, UniProt Q9WVG6); assay: Fluorescence-based in vitro PRMT assay (F-PRMT assay), PRMT4; details: for Experimental result (PRMT4): vs solvent control = 100%; for Efficacy ±∆% (PRMT4): mean % difference vs solvent control (100%)
T1 construct: Full-length FLAG-tagged PRMT protein; made in house; host or cells: Sf9 insect cells (baculovirus)
T1 sequence (Q9WVG6 1-608): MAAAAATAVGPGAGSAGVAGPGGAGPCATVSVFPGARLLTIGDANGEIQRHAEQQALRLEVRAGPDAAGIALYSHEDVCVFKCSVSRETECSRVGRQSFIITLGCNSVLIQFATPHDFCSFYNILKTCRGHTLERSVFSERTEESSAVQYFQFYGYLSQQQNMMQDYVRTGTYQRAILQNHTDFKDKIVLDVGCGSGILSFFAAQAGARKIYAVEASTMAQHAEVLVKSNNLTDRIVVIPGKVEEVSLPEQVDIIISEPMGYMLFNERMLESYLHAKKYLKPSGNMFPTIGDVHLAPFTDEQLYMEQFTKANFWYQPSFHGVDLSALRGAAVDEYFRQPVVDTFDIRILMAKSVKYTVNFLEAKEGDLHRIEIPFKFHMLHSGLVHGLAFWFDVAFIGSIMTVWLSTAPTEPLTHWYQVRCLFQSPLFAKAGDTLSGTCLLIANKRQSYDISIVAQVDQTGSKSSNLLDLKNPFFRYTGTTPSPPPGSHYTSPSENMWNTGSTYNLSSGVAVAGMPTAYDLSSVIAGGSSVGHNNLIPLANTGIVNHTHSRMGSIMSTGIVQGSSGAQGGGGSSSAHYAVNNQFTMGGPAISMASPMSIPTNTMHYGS
From the text: (§1) To evaluate the effects of the selected candidate molecules on the catalytic activity of type I enzymes, we employed a quantitative fluorescence-based in vitro PRMT activity (F-PRMT) assay using recombinant FLAG-tagged PRMT proteins expressed and affinity-purified from baculovirus-infected Sf9 cells (SI Figure S1, SI Figure S2A).
(§2) Human cell lines (PaTu8988T, PANC-1) were obtained from ATCC (American Type Culture Collection) and cultured in DMEM supplemented with 10% fetal calf serum (FCS, Gibco/BRL), 1% penicillin/streptomycin at 37 °C and 5% CO2. […] For PRMT1 inhibition, cells were treated with type I PRMT inhibitor MS023 hydrochloride (Biomol). For induction of genotoxic stress, cells were treated with gemcitabine (LC Laboratories). […] The following plasmids were used: pFASTBAC-FLAG-rat PRMT1, pFASTBAC-FLAG-mouse PRMT4, and pGEX-GAR. The complete ORFs of human PRMT3 and PRMT6 were inserted into the pFASTBAC HT-3xFLAG B vector via BamHI/HindIII and BamHI/XhoI sites, respectively.
(§3) For PRMT protein expression in insect cells, recombinant baculovirus (bacmid) was generated using the Bac-to-Bac baculovirus system (Invitrogen). Sf9 cells were transfected with bacmid DNA using X-tremeGENE HP DNA transfection reagent (Sigma-Aldrich) according to the manufacturer's instructions. After 3–5 days, supernatants were collected, filtered, and used to infect Sf9 cells to amplify the virus. After 2 rounds of virus amplification and estimation of the final P3 virus titer, the P3 virus (2–5 μL/10^6 cells) was applied for large-scale infection of 200 × 10^6 Sf9 cells in suspension culture at a density of 1 × 10^6 cells/mL. Cells were harvested 5–6 days post-infection by centrifugation at 500 g for 5 min at room temperature. Protein purification from baculovirus-infected Sf9 cells was performed as previously described. , Cells were lysed in BC buffer (20 mM HEPES pH 7.9, 250 mM NaCl, 10% (v/v) glycerin, 0.4 mM EDTA, 1 mM DTT) containing a protease inhibitor cocktail (Roche) by 3 freeze-thaw cycles. After centrifugation at 11,000 rpm (Sorval SS34 rotor) and 4 °C for 1 h, the supernatant (whole cell protein extract) was incubated with anti-FLAG M2 Affinity Gel (Cytiva) at 4 °C and under agitation for 4 h. Subsequently, beads were washed in BC buffer containing various NaCl concentrations (once in BC with 1 M NaCl, twice in BC with 500 mM NaCl, twice in BC with 250 mM NaCl and twice in BC with 100 mM NaCl). FLAG-tagged proteins were either maintained bead-bound as a 50% (v/v) slurry in BC buffer with 100 mM NaCl and stored at −80 °C or were eluted in the appropriate elution buffer (depending on the subsequent assay) containing 0.25 mg/mL 3xFLAG peptides (Sigma-Aldrich) at 4 °C for 30–45 min. To remove the FLAG-peptides from the eluate, dialysis was performed in elution buffer containing 10% (v/v) glycerol at 4 °C for 4–6 h using Slide-A-Lyzer Dialysis Devices (Thermo Fisher Scientific) according to the manufacturer’s recommendations.
(§4) In the first step, the fluorogenic substrate Nα-Benzoyl-L-arginine-7-amido-4-methylcoumarin (Bz-Arg-AMC, Sigma-Aldrich) undergoes methylation by PRMTs upon the addition of the cofactor SAM. In the second reaction step, trypsin cleaves the nonmethylated substrate, leading to the generation of the 7-amino-4-methylcoumarin product, which can be quantified by subsequent fluorescence measurement (excitation: 355 nm, emission: 460 nm). The first reaction was conducted with bead-bound PRMTs at a total volume of 100 μL. Each condition was performed as a technical triplicate to determine the mean and the standard deviation. […] For the negative controls, SAM was substituted with assay buffer. The incubation was continued at 37 °C and under agitation (1,000 rpm) for a duration of 2 h.

[2] = target: T2, FLAG-tagged PRMT6 (Homo sapiens, UniProt Q96LA8); assay: Fluorescence-based in vitro PRMT assay (F-PRMT assay), PRMT6; details: Table 1; 100 μM compound, 2 μM PRMT, vs solvent control = 100%, n = 3; racemates used
T2 construct: The complete ORFs of human PRMT3 and PRMT6 were inserted; made in house; host or cells: Sf9 insect cells (baculovirus)
From the text: as §1, §2, §3, §4

[3] = target: T3, FLAG-tagged PRMT3 (Homo sapiens, UniProt O60678); assay: Fluorescence-based in vitro PRMT assay (F-PRMT assay), PRMT3; details: Table 1; 100 μM compound, 2 μM PRMT, vs solvent control = 100%, n = 3; racemates used
T3 construct: The complete ORFs of human PRMT3 and PRMT6 were inserted; made in house; host or cells: Sf9 insect cells (baculovirus)
From the text: as §1, §2, §3, §4

[4] = target: T4, FLAG-tagged PRMT1 (Rattus norvegicus, UniProt Q63009); assay: Fluorescence-based in vitro PRMT assay (F-PRMT assay), PRMT1; details: for Experimental result (PRMT1): vs solvent control = 100%
T4 construct: Full-length FLAG-tagged PRMT protein; made in house; host or cells: Sf9 insect cells (baculovirus)

[5] = Table S2, 100 µM compound, n=3, racemates used
[6] = Table 1, 100 μM compound, 2 μM PRMT, n = 3, racemates used

T4 sequence (Q63009 whole entry): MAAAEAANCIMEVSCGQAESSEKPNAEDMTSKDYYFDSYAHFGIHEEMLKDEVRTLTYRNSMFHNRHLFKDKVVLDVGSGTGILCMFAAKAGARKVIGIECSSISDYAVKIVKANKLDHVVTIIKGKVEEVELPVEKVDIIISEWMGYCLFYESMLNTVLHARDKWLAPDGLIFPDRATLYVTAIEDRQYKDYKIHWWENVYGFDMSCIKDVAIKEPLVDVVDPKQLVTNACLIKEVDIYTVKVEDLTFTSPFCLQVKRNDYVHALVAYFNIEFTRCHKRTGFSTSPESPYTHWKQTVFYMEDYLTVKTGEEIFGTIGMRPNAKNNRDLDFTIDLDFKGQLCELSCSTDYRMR
T2 sequence (Q96LA8 whole entry): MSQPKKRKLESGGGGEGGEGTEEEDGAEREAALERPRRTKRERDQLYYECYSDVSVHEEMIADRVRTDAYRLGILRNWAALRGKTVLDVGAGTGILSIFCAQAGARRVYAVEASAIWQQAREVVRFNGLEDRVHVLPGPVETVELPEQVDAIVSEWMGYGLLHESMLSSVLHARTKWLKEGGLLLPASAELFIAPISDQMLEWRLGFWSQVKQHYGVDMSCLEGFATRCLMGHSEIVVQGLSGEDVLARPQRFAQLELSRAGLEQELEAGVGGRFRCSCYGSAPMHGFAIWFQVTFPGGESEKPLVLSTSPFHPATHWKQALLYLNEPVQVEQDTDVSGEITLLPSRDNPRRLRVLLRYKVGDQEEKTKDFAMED
T3 sequence (O60678 whole entry): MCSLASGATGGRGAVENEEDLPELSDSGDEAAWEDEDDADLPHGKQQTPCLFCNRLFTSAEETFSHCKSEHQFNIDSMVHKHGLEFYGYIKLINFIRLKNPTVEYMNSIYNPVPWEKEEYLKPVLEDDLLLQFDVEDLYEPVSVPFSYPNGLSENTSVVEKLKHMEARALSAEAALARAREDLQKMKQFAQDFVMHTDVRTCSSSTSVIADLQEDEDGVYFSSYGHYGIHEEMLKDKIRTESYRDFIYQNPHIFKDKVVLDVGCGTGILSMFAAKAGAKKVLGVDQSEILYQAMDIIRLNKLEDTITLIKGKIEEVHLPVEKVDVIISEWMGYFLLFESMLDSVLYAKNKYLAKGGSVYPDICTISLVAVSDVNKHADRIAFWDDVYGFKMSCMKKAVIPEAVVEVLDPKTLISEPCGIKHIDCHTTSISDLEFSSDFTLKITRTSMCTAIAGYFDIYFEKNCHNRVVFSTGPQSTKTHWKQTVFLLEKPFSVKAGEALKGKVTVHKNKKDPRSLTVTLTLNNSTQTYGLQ

SMILES: O=c1ccc([N+](=O)[O-])cn1Cc1nccn1Cc1ccccc1 [Compound K001JS009]
Experimental result (PRMT4) [1, 5]: n.e. (did not significantly affect the catalytic activity of the intended PRMT (less than ±6% change or not significant p-value), are marked with n.e. (no effect))

Experimental result (PRMT6) [2]: PRMT6 i
Experimental result (PRMT1) [4, 6]: PRMT1 i
Efficacy ±Δ% (PRMT1) ([4]; Table 1, 100 μM compound, mean % difference of activity vs solvent control (100%), - inhibition, + activation, n = 3): -20%
SMILES: N=C(N)NCCSCc1cccc2ccccc12 [Compound K001JS010]
Experimental result (PRMT3) [3]: PRMT3 n.e. (Compounds, which did not significantly affect the catalytic activity (less than ±6% change or not significant p-value), are marked with [drawing 8] (no effect))
Experimental result (PRMT4) [1, 6]: PRMT4 n.e. (Compounds, which did not significantly affect the catalytic activity (less than ±6% change or not significant p-value), are marked with [drawing 8] (no effect))

SMILES: CS(=O)(=O)c1ccc(C(=O)NCc2nc3cc(F)ccc3[nH]2)cc1 [Compound K001JS011]
Experimental result (PRMT4) [1, 5]: n.e. (did not significantly affect the catalytic activity of the intended PRMT (less than ±6% change or not significant p-value), are marked with n.e. (no effect))

SMILES: Cc1ccc([N+](=O)[O-])c(OCCC(=O)Nc2ccc(O)cc2C)c1 [Compound K001JS012]
Experimental result (PRMT4) [1, 5]: n.e. (did not significantly affect the catalytic activity of the intended PRMT (less than ±6% change or not significant p-value), are marked with n.e. (no effect))

SMILES: COC(=O)COc1ccc(NC(=O)C23CC(CN2)C3)cc1 [Compound K400JK003]
Experimental result (PRMT4) [1, 5]: n.e. (did not significantly affect the catalytic activity of the intended PRMT (less than ±6% change or not significant p-value), are marked with n.e. (no effect))

Efficacy ±∆% (PRMT4) ([1]; Table S2, 100 µM compound, n=3): +8%
SMILES: CCS(=O)(=O)Nc1ccc(NC(=O)C23CC(CN2)C3)cc1 [Compound K400JK004]

Efficacy ±∆% (PRMT4) ([1]; Table S2, 100 µM compound, n=3): -10%
SMILES: CC1(C(=O)Nc2ccc3nc(CN)[nH]c3c2)CCC1 [Compound K400JK011]

SMILES: N/C(Cn1ccn2nc(-c3cccs3)cc2c1=O)=N\O [Compound K400JK015]
Experimental result (PRMT4) [1, 5]: n.e. (did not significantly affect the catalytic activity of the intended PRMT (less than ±6% change or not significant p-value), are marked with n.e. (no effect))

SMILES: CCN(CC)Cc1ccc(NS(=O)(=O)c2cc(C)cs2)cc1 [Compound K400JK016]
Experimental result (PRMT4) [1, 5]: n.e. (did not significantly affect the catalytic activity of the intended PRMT (less than ±6% change or not significant p-value), are marked with n.e. (no effect))

effect on PRMT1 activity (in words) ([4]; 100 μM compound): no significant effect
SMILES: CO/C=C1/C(=O)NC(=O)c2ccccc21 [TR-02, (E/Z)-4-(Methoxymethylene)isoquinoline-1,3(2H,4H)-dione]
Experimental result (PRMT4) ([1]; Table S3, 100 µM compound, n≥3): n.e. (did not significantly affect the catalytic activity (less than ±6% change or not significant p-value), are marked with n.e. (no effect))
Experimental result (PRMT1) ([4]; Table S3, 100 µM compound, n≥3): n.e. (did not significantly affect the catalytic activity (less than ±6% change or not significant p-value), are marked with n.e. (no effect))
